# Experimental data published in patent US9023789B2, “Amylin analogs and pharmaceutical compositions thereof” (Novo Nordisk A/S, priority 2012, dated 2015).
# Read-outs that look alike come from different tables or passages of the source. Numbered stars: 1 amine (or outer) side, 2 acyl side, 3 side chain; on linkers, the order of the positions; unused ones are H or OH. Bridge positions count the residues as written; N and C are the ends. Side chains are listed from the residue outwards. Peptide text beside a SMILES is read from it. * marks the point of attachment. C20 diacid = O=C(O)CCCCCCCCCCCCCCCCCCC(=O)*; γGlu = O=C(O)[C@H](CCC(=O)[*:2])N[*:1]
# Columns and labels:
# rat calcitonin receptor = target: T1, rat calcitonin receptor (Rattus norvegicus, UniProt P32214); assay: ASSAY (VIII) binding to the rat calcitonin receptor; details: Table 7, read-out: rCTR bind IC50
# T1 construct: expressed in transfected cells; host or cells: BHK tk'ts 13 (transient, FuGENE 6), membranes
# T1 sequence (P32214 25-479 isoform P32214-2 limits assumed): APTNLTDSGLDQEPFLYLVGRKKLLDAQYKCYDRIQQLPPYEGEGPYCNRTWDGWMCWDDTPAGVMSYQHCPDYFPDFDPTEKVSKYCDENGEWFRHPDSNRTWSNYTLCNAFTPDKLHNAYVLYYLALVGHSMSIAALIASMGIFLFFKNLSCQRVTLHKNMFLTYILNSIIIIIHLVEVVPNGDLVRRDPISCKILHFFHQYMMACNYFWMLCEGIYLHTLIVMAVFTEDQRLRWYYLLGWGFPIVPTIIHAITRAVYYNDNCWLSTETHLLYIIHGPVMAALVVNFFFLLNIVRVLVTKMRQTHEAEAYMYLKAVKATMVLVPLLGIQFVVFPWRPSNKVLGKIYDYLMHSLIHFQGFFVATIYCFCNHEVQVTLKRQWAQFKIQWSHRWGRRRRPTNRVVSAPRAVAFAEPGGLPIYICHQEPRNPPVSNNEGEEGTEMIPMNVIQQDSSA
# Method in brief: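 Transfect BHK tk′ts 13 cells transiently with rat calcitonin receptor, culture in DMEM containing 10% FBS, collect cells about 48 hours later, then prepare membranes.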
# [1] = ASSAY (IV) determination of solubility; type: physicochemical
# Method in brief: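 Polypeptide stock in water ([…]) was mixed 1:1 with 100 mM buffers: glycylglycine at pH 3.0, 4.0, 5.0 and bistrispropane at pH 6.0, 6.5, 7.0, 7.5, 8.0. After 18 hours at room temperature, samples were centrifuged and polypeptide concentration measured by UPLC.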
# [2] = target: T2, rat amylin receptor (rat calcitonin receptor + rat RAMP 3) (Rattus norvegicus, UniProt P32214+Q9JJ73); assay: ASSAY (VI) binding to the rat amylin receptor; details: for IC50: binding to rat amylin receptor, read-out: rAmylin-R bind IC50
# T2 construct: expressed in transfected cells; host or cells: BHK tk'ts 13 (transient, FuGENE 6), membranes
# T2 sequence (P32214 25-479 isoform P32214-2 limits assumed): T1 sequence (P32214 25-479 isoform P32214-2 limits assumed)
# T2 sequence (Q9JJ73 23-147 partner): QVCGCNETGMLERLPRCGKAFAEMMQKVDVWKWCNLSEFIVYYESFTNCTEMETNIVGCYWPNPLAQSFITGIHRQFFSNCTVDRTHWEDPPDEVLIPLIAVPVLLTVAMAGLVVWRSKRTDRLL
# Method in brief: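 This assay measured binding to the rat amylin receptor. BHK tk′ts 13 cells were transiently transfected with the rat calcitonin receptor using FuGENE® 6 (Roche), following the manufacturer's recommendations. About 48 hours after transfection, the cells were harvested and membranes were prepared from them for the binding determination.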
# [3] = target: T3, human amylin receptor (membranes from Amylin 3(a)/CRE-luc cells) (Homo sapiens, UniProt O60896+P30988); assay: ASSAY (V) binding to the human amylin receptor (SPA, 125I-rat amylin);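 also: competition binding of cell membranes (35 ng/µL) mixed with SPA beads in 384-well plates at 40 µL total volume, read by scintillation counting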
# T3 construct: expressed in transfected cells
# T3 sequence (P30988 25-474): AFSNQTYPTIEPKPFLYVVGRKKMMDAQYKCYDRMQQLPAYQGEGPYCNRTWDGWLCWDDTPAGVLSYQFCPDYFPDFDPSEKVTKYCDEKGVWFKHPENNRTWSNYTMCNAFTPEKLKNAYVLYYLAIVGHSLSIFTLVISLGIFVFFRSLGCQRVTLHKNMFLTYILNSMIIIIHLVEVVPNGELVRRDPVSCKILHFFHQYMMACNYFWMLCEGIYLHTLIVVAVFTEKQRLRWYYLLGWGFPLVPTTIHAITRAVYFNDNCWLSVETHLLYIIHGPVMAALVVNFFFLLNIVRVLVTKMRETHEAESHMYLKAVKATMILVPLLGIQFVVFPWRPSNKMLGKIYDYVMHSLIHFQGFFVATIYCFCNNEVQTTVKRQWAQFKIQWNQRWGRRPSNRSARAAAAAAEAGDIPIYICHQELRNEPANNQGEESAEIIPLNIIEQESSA
# T3 sequence (O60896 24-148 partner): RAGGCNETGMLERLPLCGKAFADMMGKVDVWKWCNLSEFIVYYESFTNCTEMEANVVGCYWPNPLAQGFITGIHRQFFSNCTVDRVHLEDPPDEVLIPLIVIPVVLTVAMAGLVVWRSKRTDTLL
# [4] = bistrispropane buffer, pH 6.5, read-out: Solubility pH 6.5 Concentration
# [5] = bistrispropane buffer, pH 7.5, read-out: Solubility pH 7.5 Concentration
# [6] = bistrispropane buffer, pH 6.0, read-out: Solubility pH 6.0 Concentration
# [7] = bistrispropane buffer, pH 7.0, read-out: Solubility pH 7.0 Concentration
# [8] = bistrispropane buffer, pH 8.0, read-out: Solubility pH 8.0 Concentration
# [9] = glycylglycine buffer, pH 3.0, read-out: Solubility pH 3.0 Concentration
# [10] = glycylglycine buffer, pH 4.0, read-out: Solubility pH 4.0 Concentration
# [11] = glycylglycine buffer, pH 5.0, read-out: Solubility pH 5.0 Concentration
# [12] = Table 7, rat binding selectivity, rCTR IC50 / rAmylin-R IC50
# [13] = Table 7a (preferred compounds), rat binding selectivity, rCTR IC50 / rAmylin-R IC50
# [14] = ratio of rCTR bind IC50 to rAmylin-R bind IC50
# [15] = Table 5, selectivity, hCTR bind IC50 / hAmylin-R bind IC50
# [16] = Table 5a, selectivity, hCTR bind IC50 / hAmylin-R bind IC50
# [17] = Table 5b, selectivity, hCTR bind IC50 / hAmylin-R bind IC50
# [18] = Table 5c, selectivity, hCTR bind IC50 / hAmylin-R bind IC50
# [19] = Table 7, human binding selectivity, included for comparison
# [20] = Table 7a (preferred compounds), human binding selectivity, included for comparison
# [21] = ratio of human calcitonin receptor binding IC50 to human amylin receptor binding IC50
SMILES,IC50 (rat calcitonin receptor),"solubility at 18 h [1, 4]","solubility at 18 h [1, 5]","solubility at 18 h [1, 6]","solubility at 18 h [1, 7]","solubility at 18 h [1, 8]","solubility at 18 h [1, 9]","solubility at 18 h [1, 10]","solubility at 18 h [1, 11]",IC50 ([2]; Table 7),"Ratio rCT/rAmylin binding [2, 12]","Ratio rCT/rAmylin binding [2, 13]","Ratio rCT/rAmylin binding [2, 14]","Ratio hCT/hAmylin binding [3, 15]","Ratio hCT/hAmylin binding [3, 16]","Ratio hCT/hAmylin binding [3, 17]","Ratio hCT/hAmylin binding [3, 18]","Ratio hCT/hAmylin binding [3, 19]","Ratio hCT/hAmylin binding [3, 20]","Ratio hCT/hAmylin binding [3, 21]",further results
CC[C@H](C)[C@H](NC(=O)[C@H](C)NC(=O)CNC(=O)[C@H](Cc1ccccc1)NC(=O)[C@H](CC(N)=O)NC(=O)[C@@H]1CCCN1C(=O)[C@H](CO)NC(=O)[C@H](CO)NC(=O)[C@H](Cc1c[nH]cn1)NC(=O)[C@H](CCCNC(=N)N)NC(=O)[C@H](CC(C)C)NC(=O)[C@H](Cc1ccccc1)NC(=O)[C@H](C)NC(=O)[C@H](C)NC(=O)[C@H](CC(C)C)NC(=O)[C@H](CCCNC(=N)N)NC(=O)[C@H](CCC(N)=O)NC(=O)[C@@H](NC(=O)[C@H](C)NC(=O)[C@@H]1CSSC[C@H](NC(=O)[C@@H](N)CCCCNC(=O)CC[C@H](NC(=O)CCCCCCCCCCCCCCCCCCC(=O)O)C(=O)O)C(=O)N[C@@H](CC(N)=O)C(=O)N[C@@H]([C@@H](C)O)C(=O)N[C@@H](C)C(=O)N[C@@H]([C@@H](C)O)C(=O)N1)[C@@H](C)O)C(=O)N1CCC[C@H]1C(=O)N[C@@H](CO)C(=O)N[C@@H](CO)C(=O)N[C@H](C(=O)N[C@@H](CC(N)=O)C(=O)N[C@H](C(=O)NCC(=O)N[C@@H](Cc1c[nH]cn1)C(=O)N[C@@H](CC(N)=O)C(=O)N[C@H](C(=O)N[C@@H](Cc1ccc(O)cc1)C(N)=O)[C@@H](C)O)C(C)C)[C@@H](C)O [Example 93] (H-K([γGlu-C20 diacid])CNTATCATQRLAAFLRHSSPNFGAIPSSTNVGHNTY-NH2; disulfide 2-7; N-terminus assumed),131 nM,≥ 200 µM,≥ 200 µM,≥ 200 µM,≥ 200 µM,≥ 200 µM,≥ 200 µM,≥ 200 µM,≥ 200 µM,1.58 nM,83.2,83.2,83.2,101.0,101.0,101.0,101.0,101.0,101.0,101.0,
CC[C@H](C)[C@H](NC(=O)[C@H](C)NC(=O)CNC(=O)[C@H](Cc1ccccc1)NC(=O)[C@H](CC(N)=O)NC(=O)[C@@H]1CCCN1C(=O)[C@H](CO)NC(=O)[C@H](CO)NC(=O)[C@H](Cc1c[nH]cn1)NC(=O)[C@H](CCCNC(=N)N)NC(=O)[C@H](CC(C)C)NC(=O)[C@H](Cc1ccccc1)NC(=O)[C@H](CC(N)=O)NC(=O)[C@H](C)NC(=O)[C@H](CC(C)C)NC(=O)[C@H](CCCNC(=N)N)NC(=O)[C@H](CCC(N)=O)NC(=O)[C@@H](NC(=O)[C@H](C)NC(=O)[C@@H]1CSSC[C@H](NC(=O)[C@@H](N)CCCCNC(=O)COCCOCCNC(=O)COCCOCCNC(=O)CC[C@H](NC(=O)CCCCCCCCCCCCCCCCCCC(=O)O)C(=O)O)C(=O)N[C@@H](CC(N)=O)C(=O)N[C@@H]([C@@H](C)O)C(=O)N[C@@H](C)C(=O)N[C@@H]([C@@H](C)O)C(=O)N1)[C@@H](C)O)C(=O)N1CCC[C@H]1C(=O)N[C@@H](CO)C(=O)N[C@@H](CO)C(=O)N[C@H](C(=O)N1CCC[C@H]1C(=O)N[C@H](C(=O)NCC(=O)N[C@@H](CO)C(=O)N[C@@H](CC(N)=O)C(=O)N[C@H](C(=O)N[C@@H](Cc1ccc(O)cc1)C(N)=O)[C@@H](C)O)C(C)C)[C@@H](C)O [Example 96],62.2 nM,≥ 200 µM,≥ 200 µM,≥ 200 µM,≥ 200 µM,≥ 200 µM,≥ 200 µM,≥ 200 µM,≥ 200 µM,0.529 nM,117.5,117.5,117.5,79.6,79.6,79.6,79.6,79.6,79.6,79.6,
CC[C@H](C)[C@H](NC(=O)[C@H](C)NC(=O)CNC(=O)[C@H](Cc1ccccc1)NC(=O)[C@H](CC(N)=O)NC(=O)[C@@H]1CCCN1C(=O)[C@H](CO)NC(=O)[C@H](CO)NC(=O)[C@H](Cc1c[nH]cn1)NC(=O)[C@H](CCCNC(=N)N)NC(=O)[C@H](CC(C)C)NC(=O)[C@H](Cc1ccccc1)NC(=O)[C@H](CC(N)=O)NC(=O)[C@H](C)NC(=O)[C@H](CC(C)C)NC(=O)[C@H](CCCNC(=N)N)NC(=O)[C@H](CCC(N)=O)NC(=O)[C@@H](NC(=O)[C@H](C)NC(=O)[C@@H]1CSSC[C@H](NC(=O)[C@@H](N)CCCCNC(=O)COCCOCCNC(=O)COCCOCCNC(=O)CC[C@H](NC(=O)CCCCCCCCCCCCCCCCCCC(=O)O)C(=O)O)C(=O)N[C@@H](CC(N)=O)C(=O)N[C@@H]([C@@H](C)O)C(=O)N[C@@H](C)C(=O)N[C@@H]([C@@H](C)O)C(=O)N1)[C@@H](C)O)C(=O)N1CCC[C@H]1C(=O)N[C@@H](CO)C(=O)N[C@@H](CO)C(=O)N[C@H](C(=O)N[C@@H](CC(N)=O)C(=O)N[C@H](C(=O)NCC(=O)N[C@@H](Cc1c[nH]cn1)C(=O)N[C@@H](CC(N)=O)C(=O)N[C@H](C(=O)N[C@@H](Cc1ccc(O)cc1)C(N)=O)[C@@H](C)O)C(C)C)[C@@H](C)O [Example 97],159 nM,≥ 200 µM,88 µM,≥ 200 µM,≥ 200 µM,43 µM,≥ 200 µM,≥ 200 µM,≥ 200 µM,2.24 nM,71.1,71.1,71.1,103.7,103.7,103.7,103.7,103.7,103.7,103.7,Solubility pH 6.5 Concentration ([1]; pH 6.5 (Table 9a)): ≧200 μM; Solubility pH 7.0 Concentration ([1]; pH 7.0 (Table 9a)): ≧200 μM
